Experimental data taken from PubChem BioAssay (NCI).
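Five compound concentrations were applied to cells in 96-well plates for 48 hours; endpoints were derived by simple linear interpolation of the resulting dose-response curve. GI50 marks 50% less growth. TGI: total growth inhibition.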

Experiments:
Test in all cases: NCI tumour cell line growth inhibition, 48 h
786-0 renal = system: 786-0 renal
SNB-19 CNS = system: SNB-19 CNS
MCF7 breast = system: MCF7 breast
OVCAR-3 ovarian = system: OVCAR-3 ovarian
DU-145 prostate = system: DU-145 prostate
U251 CNS = system: U251 CNS
LOX IMVI melanoma = system: LOX IMVI melanoma
HOP-92 NSCLC = system: HOP-92 NSCLC
IGROV1 ovarian = system: IGROV1 ovarian
SNB-75 CNS = system: SNB-75 CNS
UO-31 renal = system: UO-31 renal
T-47D breast = system: T-47D breast
HOP-62 NSCLC = system: HOP-62 NSCLC
A549 NSCLC = system: A549 NSCLC
NCI-H23 lung = system: NCI-H23 lung
SK-OV-3 ovarian = system: SK-OV-3 ovarian
HT29 colon = system: HT29 colon
MDA-MB-435 = system: MDA-MB-435
SF-539 CNS = system: SF-539 CNS
SK-MEL-5 melanoma = system: SK-MEL-5 melanoma
SK-MEL-28 melanoma = system: SK-MEL-28 melanoma
OVCAR-8 ovarian = system: OVCAR-8 ovarian
COLO 205 colon = system: COLO 205 colon
KM12 colon = system: KM12 colon
PC-3 prostate = system: PC-3 prostate
MOLT-4 leukemia = system: MOLT-4 leukemia
HS 578T breast = system: HS 578T breast
K-562 leukemia = system: K-562 leukemia
CAKI-1 renal = system: CAKI-1 renal

Q: Which results are given for `CC(C)Sc1nc(NCCc2c[nH]c3ccccc23)c(C#N)c(-c2ccccc2)n1`?
A: TGI (786-0 renal): 30.5 µM; GI50 (SNB-19 CNS): 15.8 µM; TGI (SNB-19 CNS): 33.3 µM; GI50 (MCF7 breast): 11.3 µM; TGI (MCF7 breast): 25.4 µM; GI50 (OVCAR-3 ovarian): 15.8 µM; TGI (OVCAR-3 ovarian): 30.8 µM; GI50 (DU-145 prostate): 14.9 µM; TGI (DU-145 prostate): 34.8 µM; GI50 (U251 CNS): 11.6 µM; TGI (U251 CNS): 24.4 µM; GI50 (LOX IMVI melanoma): 4.57 µM; TGI (LOX IMVI melanoma): 15.3 µM; GI50 (HOP-92 NSCLC): 14.7 µM; TGI (HOP-92 NSCLC): 33.7 µM; GI50 (IGROV1 ovarian): 16.6 µM; TGI (IGROV1 ovarian): 32 µM; GI50 (SNB-75 CNS): 17.8 µM; TGI (SNB-75 CNS): 56.9 µM; GI50 (UO-31 renal): 14.3 µM; TGI (UO-31 renal): 31.2 µM; GI50 (T-47D breast): 6.54 µM; TGI (T-47D breast): 20.8 µM; GI50 (HOP-62 NSCLC): 13.5 µM; TGI (HOP-62 NSCLC): 27.8 µM; GI50 (A549 NSCLC): 18.4 µM; TGI (A549 NSCLC): 42.5 µM; GI50 (NCI-H23 lung): 15.5 µM; TGI (NCI-H23 lung): 30.7 µM; GI50 (SK-OV-3 ovarian): 17.5 µM; TGI (SK-OV-3 ovarian): 45.4 µM; GI50 (HT29 colon): 5.57 µM; TGI (HT29 colon): 18.9 µM; GI50 (MDA-MB-435): 14.4 µM; TGI (MDA-MB-435): 28.2 µM; GI50 (SF-539 CNS): 13 µM; TGI (SF-539 CNS): 27 µM; GI50 (SK-MEL-5 melanoma): 11.4 µM; TGI (SK-MEL-5 melanoma): 23.6 µM; GI50 (SK-MEL-28 melanoma): 14.4 µM; TGI (SK-MEL-28 melanoma): 28.6 µM; GI50 (OVCAR-8 ovarian): 18.2 µM; TGI (OVCAR-8 ovarian): 51.4 µM; GI50 (COLO 205 colon): 8.37 µM; TGI (COLO 205 colon): 21.2 µM; GI50 (KM12 colon): 5.54 µM; TGI (KM12 colon): 22.1 µM; GI50 (PC-3 prostate): 7.08 µM; TGI (PC-3 prostate): 43.8 µM; GI50 (MOLT-4 leukemia): 9.21 µM; TGI (MOLT-4 leukemia): > 100 µM; GI50 (HS 578T breast): 14.8 µM; TGI (HS 578T breast): 56.1 µM; GI50 (K-562 leukemia): 4.85 µM; TGI (K-562 leukemia): > 100 µM; GI50 (CAKI-1 renal): 11.2 µM; TGI (CAKI-1 renal): 26 µM
